Reference: patent US20230059136A1, “THE COMPOUNDS AND COMPOSITIONS FOR TREATING CONDITIONS ASSOCIATED WITH NLRP ACTIVITY” (Novartis AG, priority 2018, published 2023)
pIC50: −log10 of the molar value. Where two headings read alike, the source gives them in different places.

Test system: IL-1β production in PMA-differentiated THP-1 cells
Experiment: IL-1β production in PMA-differentiated THP-1 cells stimulated with gramicidin (hTHP-1 assay containing 2% fetal bovine serum)
Format: cell-based, human
Settings: 2% fetal bovine serum, read-out: hTHP-1 IC50 (Average IC50 of compounds in hTHP-1 assay)
Outline: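 THP-1 cells were differentiated with PMA 20 ng/ml for 16-18 h, then plated at 50,000 cells/well in RPMI with 2% FBS. They were preincubated 1 h with compound (100–0.0017 μM final, 0.37% DMSO), then stimulated with gramicidin 5 μM for 2 h. Supernatant IL-1β was measured by HTRF.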

[1] = Homo sapiens, THP-1, Table B1, class symbols
[2] = Homo sapiens, THP-1, Table B1, cells printed as numeric bound

SMILES	pIC50 [1]	also measured
CC(C)c1cc(OC(F)F)cc(C(C)C)c1CC(=O)N=S(N)(=O)c1sc(C(C)(C)O)cc1F (centres unmarked) [Example 21, 2-(4-(difluoromethoxy)-2,6-diisopropylphenyl)-N-(3-fluoro-5-(2-hydroxypropan-2-yl)thiophen-2-ylsulfonimidoyl)acctamide]	–	pIC50 (Table B1, class symbols): 6.70 to 7.40
CC(C)c1cc(C#N)cc(C(C)C)c1CC(=O)N=S(N)(=O)c1sc(C(C)(C)O)nc1CO (centres unmarked) [Example 22, N-(amino(4-(hydroxymethyl)-2-(2-hydroxypropan-2-yl)thiazol-5-yl)(oxo)-λ^6-sulfaneylidene)-2-(4-cyano-2,6-diisopropylphenyl)acetamide]	6.00 to 6.70	–
COCc1cc(C(C)C)c(CC(=O)N=S(N)(=O)c2sc(C(C)(C)O)nc2CO)c(C(C)C)c1 (centres unmarked) [Example 24, 2-(2,6-diisopropyl-4-(methoxymethyl)phenyl)-N-(4-(hydroxymethyl)-2-(2-hydroxypropan-2-yl)thiazole-5-sulfonimidoyl)acetamide]	–	pIC50 (Table B1, class symbols): 6.00 to 6.70
CCc1cc(OC(F)F)cc(C(C)C)c1CC(=O)N=S(N)(=O)c1sc(C(C)(C)O)cc1F (centres unmarked) [Example 36, 2-(4-(difluoromethoxy)-2-ethyl-6-isopropylphenyl)-N-(3-fluoro-5-(2-hydroxypropan-2-yl)thiophene-2-sulfonimidoyl)acetamide]	–	pIC50 (Table B1, class symbols): 6.00 to 6.70
CC(C)c1cc(F)cc(C(C)C)c1C(C)C(=O)N=S(N)(=O)c1cnc(C(C)(C)O)s1 (centres unmarked) [Example 96, N-(amino(2-(2-hydroxypropan-2-yl)thiazol-5-yl)(oxo)-λ^6-sulfaneylidene)-2-(4-fluoro-2,6-diisopropylphenyl)propanamide]	–	pIC50 [2]: < 4.52
CC(C)c1cc(-c2ccc3c(c2)COCC3)cc(C(C)C)c1CC(=O)N=S(N)(=O)c1cnc(C(C)(C)O)s1 (centres unmarked) [Example 97, N-(amino(2-(2-hydroxypropan-2-yl)thiazol-5-yl)(oxo)-λ^6-sulfaneylidene)-2-(4-(isochroman-7-yl)-2,6-diisopropylphenyl)acetamide]	6.00 to 6.70	–
CC(C)(O)c1ncc(S(N)(=O)=NC(=O)Cc2c(C3CC3)cc(F)cc2C(F)(F)F)s1 (centres unmarked) [Example 98, N-(amino(2-(2-hydroxypropan-2-yl)thiazol-5-yl)(oxo)-λ^6-sulfaneylidene)-2-(2-cyclopropyl-4-fluoro-6-(trifluoromethyl)phenyl)acetamide]	4.52 to 5.30	–
CC(C)c1nc(-c2cccc(C(F)(F)F)c2)c(F)c(C(C)C)c1CC(=O)N=S(N)(=O)c1cnc(C(C)(C)O)s1 (centres unmarked) [Example 100, N-(amino(2-(2-hydroxypropan-2-yl)thiazol-5-yl)(oxo)-λ^6-sulfaneylidene)-2-(5-fluoro-2,4-diisopropyl-6-(3-(trifluoromethyl)phenyl)pyridin-3-yl)acetamide]	6.00 to 6.70	–
CC(C)c1ccc(F)c(C(C)C)c1CC(=O)N=S(N)(=O)c1cc(C(C)(C)O)cs1 (centres unmarked) [Example 106, N-(ainino(4-(2-hydroxypropan-2-yl)thiophen-2-yl)(oxo)-λ^6-sulfaneylidene)-2-(3-fluoro-2,6-diisopropylphenyl)acetamide]	6.70 to 7.40	–
COCc1cc(C(C)C)c(CC(=O)N=S(N)(=O)c2ncc(C(C)(C)O)s2)c(C(C)C)c1 (centres unmarked) [Example 111, N-(amino(5-(2-hydroxypropan-2-yl)thiazol-2-yl)(oxo)-λ^6-sulfaneylidene)-2-(2,6-diisopropyl-4-(methoxymethyl)phenyl) acetamide]	6.70 to 7.40	–
CC(C)c1cc(-c2ccc3c(c2)OC(F)(F)O3)cc(C(C)C)c1CC(=O)N=S(N)(=O)c1ncc(C(C)(C)O)s1 (centres unmarked) [Example 117, N-(amino(5-(2-hydroxypropan-2-yl)thiazol-2-yl)(oxo)-λ^6-sulfaneylidene)-2-(4-(2,2-difluorobenzo[d][1,3]dioxol-5-yl)-2,6-diisopropylphenyl) acetamide]	6.70 to 7.40	–
CC(C)c1ccc(C#N)c(C(C)C)c1CC(=O)N=S(N)(=O)c1nc(C(C)(C)O)cs1 (centres unmarked) [Example 120, N-(amino(4-(2-hydroxypropan-2-yl)thiazol-2-yl)(oxo)-λ^6-sulfaneylidene)-2-(3-cyano-2,6-diisopropylphenyl)acetamide]	6.00 to 6.70	–
Cc1ccc(-c2cc(C(C)C)c(CC(=O)N=S(N)(=O)c3ncc(C(C)(C)O)s3)c(C(C)C)c2)cc1C (centres unmarked) [Example 121, N-(amino(5-(2-hydroxypropan-2-yl)thiazol-2-yl)(oxo)-λ^6-sulfaneylidene)-2-(3,5-diisopropyl-3′,4′-dimethyl-[1,1′-biphenyl]-4-yl)acetamide]	6.00 to 6.70	–
CC(C)c1cc(-c2ccc(Cl)c(Cl)c2)cc(C(C)C)c1CC(=O)N=S(N)(=O)c1ncc(C(C)(C)O)s1 (centres unmarked) [Example 122, N-(amino(5-(2-hydroxypropan-2-yl)thiazol-2-yl)(oxo)-λ^6-sulfaneylidene)-2-(3′,4′-dichloro-3,5-diisopropyl-[1,1′-biphenyl]-4-yl)acetamide]	6.00 to 6.70	–
CC(C)c1ccc(F)c(C(C)C)c1CC(=O)N=S(N)(=O)c1ccc(C(C)(C)O)s1 (centres unmarked) [Example 125, N-(amino(5-(2-hydroxypropan-2-yl)thiophen-2-yl)(oxo)-λ^6-sulfaneylidene)-2-(3-fluoro-2,6-diisopropylphenyl)acetamide]	6.00 to 6.70	–
CC(C)c1cc2c(c(C(C)C)c1CC(=O)N=S(N)(=O)c1ccc(CN(C)C)cc1)COC2 (centres unmarked) [Example 134, N-(amino(4-((dimethylamino)methyl)phenyl)(oxo)-λ^6-sulfaneylidene)-2-(4,6-diisopropyl-1,3-dihydroisobenzofuran-5-yl) acetamide]	5.30 to 6.00	–
CC(C)c1cc(-c2ccc3c(c2)CCOC3)cc(C(C)C)c1CC(=O)N=S(N)(=O)c1sc(C(C)(C)O)nc1CO (centres unmarked) [Example 137, N-(amino(4-(hydroxymethyl)-2-(2-hydroxypropan-2-yl)thiazol-5-yl)(oxo)-λ^6-sulfaneylidene)-2-(4-(isochroman-6-yl)-2,6-diisopropylphenyl)acetamide]	6.00 to 6.70	–
CC(C)c1cc(COC2CCCC2)cc(C(C)C)c1CC(=O)N=S(N)(=O)c1cnc(C(C)(C)O)s1 (centres unmarked) [Example 141, N-(amino(2-(2-hydroxypropan-2-yl)thiazol-5-yl)(oxo)-λ^6-sulfaneylidene)-2-(4-((cyclopentyloxy)methyl)-2,6-diisopropylphenyl)acetamide]	6.70 to 7.40	–
CC(C)c1cc2c(c(C(C)C)c1CC(=O)N=S(N)(=O)c1cnc(C(C)(C)O)s1)CCC2 (centres unmarked) [Example 142, N-(amino(2-(2-hydroxypropan-2-yl)thiazol-5-yl)(oxo)-λ^6-sulfaneylidene)-2-(4,6-diisopropyl-2,3-dihydro-1H-inden-5-yl)acetamide]	5.30 to 6.00	–
CC(C)c1ncc(F)c(C(C)C)c1CC(=O)N=S(N)(=O)c1sc(C(C)(C)O)cc1F (centres unmarked) [Example 149, N-(amino(3-fluoro-5-(2-hydroxypropan-2-yl)thiophen-2-yl)(oxo)-λ^6-sulfaneylidene)-2-(5-fluoro-2,4-diisopropylpyridin-3-yl) acetamide]	6.00 to 6.70	–
CC(C)c1nc(C(F)(F)F)nc(C(C)C)c1CC(=O)N=S(N)(=O)c1cnc(C(C)(C)O)s1 (centres unmarked) [Example 153, N-(amino(2-(2-hydroxypropan-2-yl)thiazol-5-yl)(oxo)-λ^6-sulfaneylidene)-2-(4,6-diisopropyl-2-(trifluoromethyl)pyrimidin-5-yl)acetamide]	5.30 to 6.00	–
CC(C)c1cnc(F)c(C(C)C)c1CC(=O)N=S(N)(=O)c1cnc(C(C)(C)O)s1 (centres unmarked) [Example 154, N-(amino(2-(2-hydroxypropan-2-yl)thiazol-5-yl)(oxo)-λ^6-sulfaneylidene)-2-(2-fluoro-3,5-diisopropylpyridin-4-yl)acetamide]	4.52 to 5.30	–
CC(C)(O)c1ncc(S(N)(=O)=NC(=O)Cc2c3c(cc4c2CC4)CCC3)s1 (centres unmarked) [Example 222, N-(amino(2-(2-hydroxypropan-2-yl)thiazol-5-yl)(oxo)-λ^6-sulfaneylidene)-2-(2,4,5,6-tetrahydro-1H-cyclobuta[f]inden-3-yl)acetamide]	5.30 to 6.00	–
CC(C)(O)c1ncc(S(N)(=O)=NC(=O)Cc2c3c(cc4c2CC4)CCC3)s1 [Example 223, (S)- and (R)—N-(amino(2-(2-hydroxypropan-2-yl)thiazol-5-yl)(oxo)-λ^6-sulfaneylidene)-2-(2,4,5,6-tetrahydro-1H-cyclobuta[f]inden-3-yl)acetamide]	–	pIC50 (Table B1, class symbols): 5.30 to 6.00
CC(C)(O)c1ncc(S(N)(=O)=NC(=O)Cc2c3c(cc4c2CC4)CCC3)s1 [Example 224, (S)- and (R)—N-(amino(2-(2-hydroxypropan-2-yl)thiazol-5-yl)(oxo)-λ^6-sulfaneylidene)-2-(2,4,5,6-tetrahydro-1H-cyclobuta[f]inden-3-yl)acetamide]	–	pIC50 [2]: < 4.52
CC(C)c1ccc(F)c(C(C)C)c1CC(=O)N=S(=O)(NC(=O)Cc1c(C(C)C)ccc(F)c1C(C)C)c1ccc(CN(C)C)nc1 (centres unmarked) [Example 225, N-(6-((dimethylamino)methyl)-N-(2-(3-fluoro-2,6-diisopropylphenyl)acetyl)pyridine-3-sulfonimidoyl)-2-(3-fluoro-2,6-diisopropylphenyl) acetamide]	4.52 to 5.30	–
CC(C)c1cc(C#CC2CCCCC2)cc(C(C)C)c1CC(=O)N=S(N)(=O)c1cc(C(C)(C)O)n(-c2ccccc2)n1 (centres unmarked) [Example 226, N-(amino(5-(2-hydroxypropan-2-yl)-1-phenyl-1H-pyrazol-3-yl)(oxo)-λ^6-sulfaneylidene)-2-(4-(cyclohexylethynyl)-2,6-diisopropylphenyl)acetamide]	5.30 to 6.00	–
CC(C)c1cc(C(=O)CC2CCCCC2)cc(C(C)C)c1CC(=O)N=S(N)(=O)c1cc(C(C)(C)O)n(-c2ccccc2)n1 (centres unmarked) [Example 227]	5.30 to 6.00	–
CC(C)c1cc(CCC2CCCCC2)cc(C(C)C)c1CC(=O)N=S(N)(=O)c1cc(C(C)(C)O)n(-c2ccccc2)n1 (centres unmarked) [Example 228, N-(amino(5-(2-hydroxypropan-2-yl)-1-phenyl-1H-pyrazol-3-yl)(oxo)-λ^6-sulfaneylidene)-2-(4-(2-cyclohexylethyl)-2,6-diisopropylphenyl)acetamide]	4.52 to 5.30	–
